Reference: PMC6979384, “Characterization of the plant homeodomain (PHD) reader family for their histone tail interactions” (Epigenetics & Chromatin, 2020)

Assays:
Experiment in all cases: Histone peptide microarray
Type in all cases: binding, human
Conditions in all cases: sheet "Array Heatmap"; GST-tagged reader; histone peptide array, total n = 4
BAZ2B = system: BAZ2B
Outline: (§1)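 Binding read as mean relative signal from 4 replicates; microarray held 293 synthetic histone peptides with single or combinatorial PTMs. Each GST-tagged PHD reader was applied at 0.5 μM using the optimized Petell protocol.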

PHF8 = system: PHF8
Outline: as §1

BPTF (PB) = system: BPTF (PB)
Outline: as §1

PHF13 = system: PHF13
Outline: as §1

PHRF1 (RP) = system: PHRF1 (RP)
Outline: as §1

KDM5A (1) = system: KDM5A (1)
Outline: as §1

ING2 = system: ING2
Outline: as §1

KDM4C (TTP) = system: KDM4C (TTP)
Outline: as §1

MLL5 = system: MLL5
Outline: as §1

ING4 = system: ING4
Outline: as §1

SP140L = system: SP140L
Outline: as §1

CHD5 (PCC) = system: CHD5 (PCC)
Outline: as §1

CHD5 (PPCC) = system: CHD5 (PPCC)
Outline: as §1

DPF2 (PPC2W2) = system: DPF2 (PPC2W2)
Outline: as §1

TRIM66 (PB) = system: TRIM66 (PB)
Outline: as §1

CHD4 (PPCC) = system: CHD4 (PPCC)
Outline: as §1

PHF21A = system: PHF21A
Outline: as §1

ING1 = system: ING1
Outline: as §1

PHF2 = system: PHF2
Outline: as §1

AIRE (PP) = system: AIRE (PP)
Outline: as §1

KDM5B (1) = system: KDM5B (1)
Outline: as §1

KDM5B (3) = system: KDM5B (3)
Outline: as §1

MORC3 (CW) = system: MORC3 (CW)
Outline: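 Steps: express and purify GST-tagged PHD reader; incubate 0.5 μM protein on a peptide microarray (293 histone peptides, single or combined PTMs) following an optimized protocol; average signal across 4 replicates.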

PHF23 = system: PHF23
Outline: as §1

KDM5A (3) = system: KDM5A (3)
Outline: as §1

ING3 = system: ING3
Outline: as §1

KDM7A = system: KDM7A
Outline: as §1

ING5 = system: ING5
Outline: as §1

RAG2 = system: RAG2
Outline: as §1

TAF3 = system: TAF3
Outline: as §1

DIDO1 = system: DIDO1
Outline: as §1

Substance: H3K4me3 + K9ac + S10p: H3 1-20
- Array Heatmap signal, BAZ2B (BAZ2B): 0.4222
- Array Heatmap signal, PHF8 (PHF8): 0.4377
- Array Heatmap signal, BPTF (PB) (BPTF (PB)): 0.3713
- Array Heatmap signal, PHF13 (PHF13): 0.601
- Array Heatmap signal, PHRF1 (RP) (PHRF1 (RP)): 0.5333
- Array Heatmap signal, KDM5A (1) (KDM5A (1)): 0.422
- Array Heatmap signal, ING2 (ING2): 0.7056
- Array Heatmap signal, KDM4C (TTP) (KDM4C (TTP)): 0.4439
- Array Heatmap signal, MLL5 (MLL5): 0.6372
- Array Heatmap signal, ING4 (ING4): 0.4594
- Array Heatmap signal, SP140L (SP140L): 0.3742
- Array Heatmap signal, CHD5 (PCC) (CHD5 (PCC)): 0.7803
- Array Heatmap signal, CHD5 (PPCC) (CHD5 (PPCC)): 0.5185
- Array Heatmap signal, DPF2 (PPC2W2) (DPF2 (PPC2W2)): 0.6858
- Array Heatmap signal, TRIM66 (PB) (TRIM66 (PB)): 0.5913
- Array Heatmap signal, CHD4 (PPCC) (CHD4 (PPCC)): 0.6064
- Array Heatmap signal, PHF21A (PHF21A): 0.4669
- Array Heatmap signal, ING1 (ING1): 0.6226
- Array Heatmap signal, PHF2 (PHF2): 0.6992
- Array Heatmap signal, AIRE (PP) (AIRE (PP)): 0.4053
- Array Heatmap signal, KDM5B (1) (KDM5B (1)): 0.5673
- Array Heatmap signal, KDM5B (3) (KDM5B (3)): 0.4789
- Array Heatmap signal, MORC3 (CW) (MORC3 (CW)): 0.5046
- Array Heatmap signal, PHF23 (PHF23): 0.5778
- Array Heatmap signal, KDM5A (3) (KDM5A (3)): 0.592
- Array Heatmap signal, ING3 (ING3): 0.5024
- Array Heatmap signal, KDM7A (KDM7A): 0.3478
- Array Heatmap signal, ING5 (ING5): 0.3414
- Array Heatmap signal, RAG2 (RAG2): 0.3673
- Array Heatmap signal, TAF3 (TAF3): 0.3627
- Array Heatmap signal, DIDO1 (DIDO1): 0.8464
